According to ChEMBL document CHEMBL4414672, “Synthesis of certain benzothieno[3,2-d]pyrimidine derivatives as a selective SIRT2 inhibitors” (Eur J Med Chem, 2020):

Key:
Type in all cases: functional
NCI-H522 = experiment: Growth inhibition of human NCI-H522 cells at 10^-5 M incubated for 48 hrs by sulforhodamine B assay; conditions: NCI-H522, 48 h, read-out: GI
SF-295 = experiment: Growth inhibition of human SF295 cells at 10^-5 M incubated for 48 hrs by sulforhodamine B assay; conditions: SF-295, 48 h, read-out: GI
TK-10 = experiment: Growth inhibition of human TK10 cells at 10^-5 M incubated for 48 hrs by sulforhodamine B assay; conditions: TK-10, 48 h, read-out: GI
A498 = experiment: Growth inhibition of human A498 cells at 10^-5 M incubated for 48 hrs by sulforhodamine B assay; conditions: A498, 48 h, read-out: GI
UACC-62 = experiment: Growth inhibition of human UACC62 cells at 10^-5 M incubated for 48 hrs by sulforhodamine B assay; conditions: UACC-62, 48 h, read-out: GI
MCF7 = experiment: Growth inhibition of human MCF7 cells at 10^-5 M incubated for 48 hrs by sulforhodamine B assay; conditions: MCF7, 48 h, read-out: GI
SK-MEL-28 = experiment: Growth inhibition of human SK-MEL-28 cells at 10^-5 M incubated for 48 hrs by sulforhodamine B assay; conditions: SK-MEL-28, 48 h, read-out: GI
UO-31 = experiment: Growth inhibition of human UO31 cells at 10^-5 M incubated for 48 hrs by sulforhodamine B assay; conditions: UO-31, 48 h, read-out: GI
CCRF-CEM = experiment: Growth inhibition of human CCRF-CEM cells at 10^-5 M incubated for 48 hrs by sulforhodamine B assay; conditions: read-out: GI
SN12C = experiment: Growth inhibition of human SN12C cells at 10^-5 M incubated for 48 hrs by sulforhodamine B assay; conditions: read-out: GI
786-0 = experiment: Growth inhibition of human 786-0 cells at 10^-5 M incubated for 48 hrs by sulforhodamine B assay; conditions: 786-0, 48 h, read-out: GI
NCI-H460 = experiment: Growth inhibition of human NCI-H460 cells at 10^-5 M incubated for 48 hrs by sulforhodamine B assay; conditions: NCI-H460, 48 h, read-out: GI
DU-145 = experiment: Growth inhibition of human DU145 cells at 10^-5 M incubated for 48 hrs by sulforhodamine B assay; conditions: DU-145, 48 h, read-out: GI
PC-3 = experiment: Growth inhibition of human PC3 cells at 10^-5 M incubated for 48 hrs by sulforhodamine B assay; conditions: PC-3, 48 h, read-out: GI
HOP-62 = experiment: Growth inhibition of human HOP62 cells at 10^-5 M incubated for 48 hrs by sulforhodamine B assay; conditions: HOP-62, 48 h, read-out: GI
IGROV-1 = experiment: Growth inhibition of human IGROV1 cells at 10^-5 M incubated for 48 hrs by sulforhodamine B assay; conditions: IGROV-1, 48 h, read-out: GI
SF-539 = experiment: Growth inhibition of human SF539 cells at 10^-5 M incubated for 48 hrs by sulforhodamine B assay; conditions: SF-539, 48 h, read-out: GI
HL-60(TB) = experiment: Growth inhibition of human HL-60(TB) cells at 10^-5 M incubated for 48 hrs by sulforhodamine B assay; conditions: HL-60, 48 h, read-out: GI
EKVX = experiment: Growth inhibition of human EKVX cells at 10^-5 M incubated for 48 hrs by sulforhodamine B assay; conditions: read-out: GI
UACC-257 = experiment: Growth inhibition of human UACC257 cells at 10^-5 M incubated for 48 hrs by sulforhodamine B assay; conditions: UACC-257, 48 h, read-out: GI
LOX IMVI = experiment: Growth inhibition of human LOXIMVI cells at 10^-5 M incubated for 48 hrs by sulforhodamine B assay; conditions: read-out: GI
HCT-116 = experiment: Growth inhibition of human HCT116 cells at 10^-5 M incubated for 48 hrs by sulforhodamine B assay; conditions: HCT-116, 48 h, read-out: GI
MDA-MB-435 = experiment: Growth inhibition of human MDA-MB-435 cells at 10^-5 M incubated for 48 hrs by sulforhodamine B assay; conditions: MDA-MB-435, 48 h, read-out: GI
OVCAR-4 = experiment: Growth inhibition of human OVCAR4 cells at 10^-5 M incubated for 48 hrs by sulforhodamine B assay; conditions: OVCAR-4, 48 h, read-out: GI
HOP-92 = experiment: Growth inhibition of human HOP92 cells at 10^-5 M incubated for 48 hrs by sulforhodamine B assay; conditions: HOP-92, 48 h, read-out: GI
SK-OV-3 = experiment: Growth inhibition of human SKOV3 cells at 10^-5 M incubated for 48 hrs by sulforhodamine B assay; conditions: SK-OV-3, 48 h, read-out: GI
OVCAR-5 = experiment: Growth inhibition of human OVCAR5 cells at 10^-5 M incubated for 48 hrs by sulforhodamine B assay; conditions: OVCAR-5, 48 h, read-out: GI
ACHN = experiment: Growth inhibition of human ACHN cells at 10^-5 M incubated for 48 hrs by sulforhodamine B assay; conditions: read-out: GI
OVCAR-8 = experiment: Growth inhibition of human OVCAR8 cells at 10^-5 M incubated for 48 hrs by sulforhodamine B assay; conditions: OVCAR-8, 48 h, read-out: GI
NCI-H23 = experiment: Growth inhibition of human NCI-H23 cells at 10^-5 M incubated for 48 hrs by sulforhodamine B assay; conditions: NCI-H23, 48 h, read-out: GI
HT-29 = experiment: Growth inhibition of human HT-29 cells at 10^-5 M incubated for 48 hrs by sulforhodamine B assay; conditions: HT-29, 48 h, read-out: GI
SK-MEL-2 = experiment: Growth inhibition of human SK-MEL-2 cells at 10^-5 M incubated for 48 hrs by sulforhodamine B assay; conditions: SK-MEL-2, 48 h, read-out: GI
KM12 = experiment: Growth inhibition of human KM12 cells at 10^-5 M incubated for 48 hrs by sulforhodamine B assay; conditions: KM12, 48 h, read-out: GI
K562 = experiment: Growth inhibition of human K562 cells at 10^-5 M incubated for 48 hrs by sulforhodamine B assay; conditions: K562, 48 h, read-out: GI
Hs-578T = experiment: Growth inhibition of human Hs 578T cells at 10^-5 M incubated for 48 hrs by sulforhodamine B assay; conditions: read-out: GI
M14 = experiment: Growth inhibition of human M14 cells at 10^-5 M incubated for 48 hrs by sulforhodamine B assay; conditions: M14, 48 h, read-out: GI
Malme-3M = experiment: Growth inhibition of human MALME-3M cells at 10^-5 M incubated for 48 hrs by sulforhodamine B assay; conditions: read-out: GI
SF-268 = experiment: Growth inhibition of human SF268 cells at 10^-5 M incubated for 48 hrs by sulforhodamine B assay; conditions: SF-268, 48 h, read-out: GI
SNB-19 = experiment: Growth inhibition of human SNB19 cells at 10^-5 M incubated for 48 hrs by sulforhodamine B assay; conditions: SNB-19, 48 h, read-out: GI

Row | Structure (SMILES) | inhibition of growth at 10 µM (NCI-H522) | inhibition of growth at 10 µM (SF-295) | inhibition of growth at 10 µM (TK-10) | inhibition of growth at 10 µM (A498) | inhibition of growth at 10 µM (UACC-62) | inhibition of growth at 10 µM (MCF7) | inhibition of growth at 10 µM (SK-MEL-28) | inhibition of growth at 10 µM (UO-31) | inhibition of growth at 10 µM (CCRF-CEM) | inhibition of growth at 10 µM (SN12C) | inhibition of growth at 10 µM (786-0) | inhibition of growth at 10 µM (NCI-H460) | inhibition of growth at 10 µM (DU-145) | inhibition of growth at 10 µM (PC-3) | inhibition of growth at 10 µM (HOP-62) | inhibition of growth at 10 µM (IGROV-1) | inhibition of growth at 10 µM (SF-539) | inhibition of growth at 10 µM (HL-60(TB)) | inhibition of growth at 10 µM (EKVX) | inhibition of growth at 10 µM (UACC-257) | other results
1 | O=C1/C(=C\c2cccc([N+](=O)[O-])c2)Sc2ccc(Cl)cc21 | 25.8% | -3.16% | -12.1% | 11.5% | 29.5% | 22.4% | -11.7% | 11.3% | -0.32% | -12.1% | -1.44% | -5.14% | -3.94% | -3.94% | -0.47% | 19.9% | -3.16% | -10.8% | 4.33% | -6.4% | inhibition of growth at 10 µM (LOX IMVI): 8.68%; inhibition of growth at 10 µM (HCT-116): 45.9%; inhibition of growth at 10 µM (MDA-MB-435): 35.4%; inhibition of growth at 10 µM (OVCAR-4): 21.4%; inhibition of growth at 10 µM (HOP-92): 42.7%; inhibition of growth at 10 µM (SK-OV-3): 5.38%; inhibition of growth at 10 µM (OVCAR-5): -1.89%; inhibition of growth at 10 µM (ACHN): 27%; inhibition of growth at 10 µM (OVCAR-8): 0.87%; inhibition of growth at 10 µM (NCI-H23): 16.7%; inhibition of growth at 10 µM (HT-29): -3.12%; inhibition of growth at 10 µM (SK-MEL-2): 12.4%; inhibition of growth at 10 µM (KM12): -2.29%; inhibition of growth at 10 µM (K562): 10.5%; inhibition of growth at 10 µM (Hs-578T): -8.12%; inhibition of growth at 10 µM (M14): 4.61%; inhibition of growth at 10 µM (Malme-3M): 22.4%; inhibition of growth at 10 µM (SF-268): 7.22%; inhibition of growth at 10 µM (SNB-19): -6.12%
2 | N#Cc1cnn(C2=Nc3c(sc4ccc(Cl)cc34)C(c3cccc([N+](=O)[O-])c3)N2)c1N (stereo not drawn) | 4.1% | -2.52% | 25.1% | -6.43% | 7.54% | 29.9% | -13.6% | 41.2% | -11.9% | -7.06% | 1% | -1.07% | -10.5% | 11% | 5.61% | 23.1% | 2.87% | -5.54% | 20.9% | -3.69% | inhibition of growth at 10 µM (LOX IMVI): 12.5%; inhibition of growth at 10 µM (HCT-116): 5.22%; inhibition of growth at 10 µM (MDA-MB-435): -7.15%; inhibition of growth at 10 µM (OVCAR-4): -1.38%; inhibition of growth at 10 µM (HOP-92): 1.55%; inhibition of growth at 10 µM (SK-OV-3): 5.04%; inhibition of growth at 10 µM (OVCAR-5): 4.37%; inhibition of growth at 10 µM (ACHN): 15.2%; inhibition of growth at 10 µM (OVCAR-8): -2.67%; inhibition of growth at 10 µM (NCI-H23): 19.8%; inhibition of growth at 10 µM (HT-29): -17.9%; inhibition of growth at 10 µM (SK-MEL-2): -5.14%; inhibition of growth at 10 µM (KM12): 3.84%; inhibition of growth at 10 µM (K562): 1.28%; inhibition of growth at 10 µM (Hs-578T): 3.32%; inhibition of growth at 10 µM (M14): -2.52%; inhibition of growth at 10 µM (Malme-3M): -6.04%; inhibition of growth at 10 µM (SF-268): 5.36%; inhibition of growth at 10 µM (SNB-19): -2.52%
